In PMC12114375, “Discovery of Hydrazineyl Amide Derivative of Pseudolaric Acid B for Reprogramming Tumor-Associated Macrophages Against Tumor Growth” (Molecules, 2025):
Where two headings read alike, the source gives them in different places.

Experiments:
[1] = In vivo pharmacokinetic study in mice; design: species or system ICR mice; settings: 1 mg/kg i.v., mean ± SD
Description: To investigate the druggability of compound 12, the pharmacokinetic (PK) properties of 12 were examined in mice. The mice were treated with 12 intravenously (i.v.) at a dose of 1 mg/kg, and the resulting PK parameters were recorded.
ICR mice (n = 3) were administered with the test compound via intravenous injection at 1 mg/kg. Blood samples were collected 0.083, 0.25, 0.5, 1, 2, 4, 8, and 24 h after administration. An aliquot of 10 μL of the plasma sample was deproteinized with 200 μL of a MeOH: ACN = 1: 1 solution containing an internal standard. After centrifugation, the supernatant was injected for LC–MS/MS analysis. A standard set of parameters, including the area under the curve (AUC0–∞), elimination half-life (T1/2), time to reach the maximum plasma concentration (Tmax), maximum plasma concentration (Cmax), plasma clearance (Cl), and mean residence time (MRT), were calculated using WinNonlin software.

[2] = system: ARG1, NOS2, CD206 and MHC II mRNA expression in BMDMs; assay: qRT-PCR of ARG1, NOS2, CD206, MHC II in BMDMs; type: cell-based, mouse; settings: BMDMs stimulated with IL-4/IL-13, different concentrations, 12 h
Description: (§1) We also extended the test to primary murine macrophages derived from bone marrow (BMDMs), which were cultured in vitro with recombinant mouse M-CSF for 6 days. The BMDMs were then stimulated with IL-4/IL-13, leading to their transformation into M2-like pro-tumoral macrophages. This transformation was characterized by an increase in both ARG1 and CD206 expression and a decrease in both NOS2 and MHC II expression. […] Subsequently, we assessed the capacity of compound 12 to inhibit the M2-like polarization of macrophages using CSF-1-differentiated mouse BMDMs. These cells were treated with IL-4 and IL-13 for 48 h, and the expression levels of CD206, an M2-type marker, and CD86, an M1-type marker, were analyzed via flow cytometry. […]
(§2) Figure 2 Compound 12 inhibits the M2-like polarized phenotype of macrophages. […] The expression levels of the markers CD206 and CD86 on induced macrophages were determined by flow cytometry, and the mean fluorescence intensity (MFI) was analyzed with FlowJo (C), or the cells were lysed and immunoblotted to detect the indicated proteins (D). […] Data are represented as means ± SD. ^### p < 0.001 vs. non-stimulated control group, * p < 0.05, ** p < 0.01, *** p < 0.001 vs. stimulated control group. p-values were determined using one-way ANOVA.

[3] = system: ARG1 protein expression in BMDMs; assay: Western blot of ARG1 protein in macrophages; type: cell-based, mouse; settings: CSF-1-differentiated BMDMs, IL-4 and IL-13, 48 h, different concentrations
Description: We also extended the test to primary murine macrophages derived from bone marrow (BMDMs), which were cultured in vitro with recombinant mouse M-CSF for 6 days. The BMDMs were then stimulated with IL-4/IL-13, leading to their transformation into M2-like pro-tumoral macrophages. This transformation was characterized by an increase in both ARG1 and CD206 expression and a decrease in both NOS2 and MHC II expression. […] Subsequently, we assessed the capacity of compound 12 to inhibit the M2-like polarization of macrophages using CSF-1-differentiated mouse BMDMs. These cells were treated with IL-4 and IL-13 for 48 h, and the expression levels of CD206, an M2-type marker, and CD86, an M1-type marker, were analyzed via flow cytometry.
Total cellular protein was extracted using a 1 × SDS lysis buffer and denatured at 100 °C for 15 min. […]
as §2

[4] = system: M2-like polarization of BMDMs (CD206, CD86); assay: Macrophage phenotype analysis by flow cytometry (CD206, CD86) in BMDMs; type: cell-based, mouse; settings: CSF-1-differentiated BMDMs, IL-4 and IL-13, 48 h, different concentrations
Description: as §1
BMDMs were collected and stained with a fluorescent antibody or the matching isotype controls for 30 min at room temperature and then tested using a BD CytoFLEX LX (Beckman, CA, USA). […] Data were analyzed using FlowJo10.4 software.
Figure 2 Compound 12 inhibits the M2-like polarized phenotype of macrophages. […] The expression levels of the markers CD206 and CD86 on induced macrophages were determined by flow cytometry, and the mean fluorescence intensity (MFI) was analyzed with FlowJo (C), or the cells were lysed and immunoblotted to detect the indicated proteins (D). […]

Question: With `COC(=O)C1=CC[C@@]23CC[C@@H]([C@@](C)(/C=C/C=C(\C)C(=O)NNCCO)OC2=O)[C@@]3(OC(C)=O)CC1` [compound 12, Methyl(3R,4S,4aS,9aR)-4a-acetoxy-3-((1E,3E)-5-(2-(2-hydroxyethyl)hydrazineyl)-4-methyl-5-oxopenta-1,3-dien-1-yl)-3-methyl-1-oxo-3,4,4a,5,6,9-hexahydro-1H-4,9a-ethanocyclohepta[c]pyran-7-carboxylate] as the compound, how does the Tmax ([1]; n = 3, 1 mg/kg) read?
Answer: 5 ± 0 min

Question: What about the AUC(0-inf) ([1]; ICR, mouse, plasma, iv, n = 3) of the same compound?
Answer: 363 ± 29.4 ng·h/mL

Question: What about the Cmax ([1]; ICR, mouse, plasma, iv, n = 3) of the same compound?
Answer: 32.1 ± 11.7 ng/mL

Question: And the clearance ([1]; ICR, mouse, plasma, iv, n = 3)?
Answer: 46.1 mL/min/kg

Question: And the half-life ([1]; ICR, mouse, plasma, iv, n = 3)?
Answer: 40.2 ± 6.88 h

Question: And the MRT inf ([1]; ICR, mouse, plasma, iv, n = 3, read-out: MRT0–∞)?
Answer: 63.1 ± 7.96 h

Question: What about the Tmax ([1]; ICR, mouse, plasma, iv, 1 mg/kg, n = 3, read-out: Tmax) of the same compound?
Answer: 4.98 min

Question: What about the “IL-4/IL-13-induced increase in ARG1 and CD206 and decrease in NOS2 and MHC II expression” value [2] of the same compound?
Answer: significantly reversed these trends

Question: And the “ARG1 protein expression (Western blot)” value [3]?
Answer: potent inhibitory activity at the protein level

Question: What about the “CD86 expression (MFI, flow cytometry)” value [4] of the same compound?
Answer: increase in CD86 expression

Question: And the “CD206 expression (MFI, flow cytometry)” value [4]?
Answer: decrease in CD206 expression
